Test results as given in the supplement of paper PMC7017272.
± gives the standard deviation of the averaged measurements. One block for each compound: values may come before it.

Tests used:
Settings in all cases: treatment time: 3 days
UT-SCC-24A [1] = test: relative IC50 (midpoint of the fitted curve; maximal inhibition may be below 50%); higher = less potent
Method: (§1)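 HNSCC cell lines (500 cells/well, 384-well) were cultured on plastic, on top of (2D) or embedded (3D) in Matrigel or human leiomyoma matrix Myogel (500 ug/mL; Myogel 3D mixed with rat collagen I). Cells were treated for 3 days with 5 ten-fold concentrations of each drug, and viability was read by CellTiter-Glo. Viability was normalised to DMSO (0% inhibition) and 100 uM benzethonium chloride (100% inhibition) controls and fitted with the FIMM DSRT pipeline to give IC50 (nM), maximal % inhibition and the drug sensitivity score (DSS). Suffixes _1/_2/_3 on drug names are replicates.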

UT-SCC-42A = test: relative IC50 (midpoint of the fitted curve; maximal inhibition may be below 50%); higher = less potent
Method in brief: (§2)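 Viability was read with CellTiter-Glo 2.0 luminescence and scaled against vehicle (0.1% DMSO) and cell-killing control wells. The assay used HPV-negative HNSCC cell lines at 500 cells/well in 384-well plates, grown on plastic, on Matrigel or Myogel coatings (500 µg/mL), or embedded in Matrigel or Myogel plus rat collagen I, and treated for 3 days at five 10-fold concentrations. IC50, maximal inhibition and drug sensitivity score were derived from percent-inhibition dose–response curves fitted in the FIMM pipeline.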

UT-SCC-14 [2] = test: as above
Method in brief: as §2

UT-SCC-40 = test: as above
Method in brief: as §2

UT-SCC-106A = test: as above
Method in brief: as §2

UT-SCC-81 = test: as above
Method in brief: as §2

UT-SCC-73 = test: as above
Method in brief: as §2

UT-SCC-28 = test: as above
Method in brief: as §2

UT-SCC-42B = test: as above
Method in brief: as §2

UT-SCC-44 = test: as above
Method in brief: as §2

UT-SCC-8 = test: as above
Method in brief: as §2

UT-SCC-24B [3] = test: as above
Method in brief: as §2

UT-SCC-14 [4] = test: drug sensitivity score (DSS); higher = more sensitive; extreme values may be limits of the assay
Method in brief: as §2

UT-SCC-24B [5] = test: as above
Method in brief: as §2

UT-SCC-24A [6] = test: drug sensitivity score (DSS); higher = more sensitive
Method: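 HNSCC cell lines (500 cells/well, 384-well) were cultured on plastic, on top of (2D) or embedded (3D) in Matrigel or human leiomyoma matrix Myogel (500 ug/mL; Myogel 3D mixed with rat collagen I). Cells were treated for 3 days with 5 ten-fold concentrations of each drug, and viability was read by CellTiter-Glo. Suffixes _1/_2/_3 on drug names are replicates.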

UT-SCC-24A [7] = test: maximal % inhibition of viability relative to DMSO; higher = stronger effect
Method: as §1

[8] = culture condition: embedded in Matrigel
[9] = culture condition: embedded in Myogel + collagen I
[10] = culture condition: on top of Matrigel
[11] = culture condition: on top of Myogel
[12] = culture condition: plastic 2D (no matrix)

- relative IC50 (UT-SCC-24A [1]; [8]): 0.00417 µM
- relative IC50 (UT-SCC-24A [1]; [9]): 0.007 µM
- relative IC50 (UT-SCC-24A [1]; [10]): 0.00502 µM
- relative IC50 (UT-SCC-24A [1]; [11]): 0.0101 µM
- relative IC50 (UT-SCC-24A [1]; [12]): 0.00544 µM
- relative IC50 (UT-SCC-42A; [8]): 0.0156 µM
- relative IC50 (UT-SCC-42A; [9]): 0.0166 µM
- relative IC50 (UT-SCC-42A; [10]): 0.0132 µM
- relative IC50 (UT-SCC-42A; [11]): 0.0164 µM
- relative IC50 (UT-SCC-42A; [12]): 0.0115 µM
- relative IC50 (UT-SCC-14 [2]; [8]): 0.00567 µM
- relative IC50 (UT-SCC-14 [2]; [10]): 0.00829 µM
- relative IC50 (UT-SCC-14 [2]; [11]): 0.0112 µM
- relative IC50 (UT-SCC-14 [2]; [12]): 0.00677 µM
- relative IC50 (UT-SCC-40; [8]): 0.00531 µM
- relative IC50 (UT-SCC-40; [9]): 0.00986 µM
- relative IC50 (UT-SCC-40; [10]): 0.0053 µM
- relative IC50 (UT-SCC-40; [11]): 0.0129 µM
- relative IC50 (UT-SCC-40; [12]): 0.0117 µM
- relative IC50 (UT-SCC-106A; [8]): 0.00451 µM
- relative IC50 (UT-SCC-106A; [9]): 0.0101 µM
- relative IC50 (UT-SCC-106A; [10]): 0.0057 µM
- relative IC50 (UT-SCC-106A; [11]): 0.0156 µM
- relative IC50 (UT-SCC-106A; [12]): 0.00569 µM
- relative IC50 (UT-SCC-81; [8]): 0.004 µM
- relative IC50 (UT-SCC-81; [9]): 0.00883 µM
- relative IC50 (UT-SCC-81; [10]): 0.00522 µM
- relative IC50 (UT-SCC-81; [11]): 0.00949 µM
- relative IC50 (UT-SCC-81; [12]): 0.00877 µM
- relative IC50 (UT-SCC-73; [8]): 0.00673 µM
- relative IC50 (UT-SCC-73; [10]): 0.00672 µM
- relative IC50 (UT-SCC-73; [11]): 0.00927 µM
- relative IC50 (UT-SCC-73; [12]): 0.00851 µM
- relative IC50 (UT-SCC-28; [8]): 0.00299 µM
- relative IC50 (UT-SCC-28; [9]): 0.0128 µM
- relative IC50 (UT-SCC-28; [10]): 0.00519 µM
- relative IC50 (UT-SCC-28; [12]): 0.00526 µM
- relative IC50 (UT-SCC-42B; [8]): 0.00688 µM
- relative IC50 (UT-SCC-42B; [10]): 0.0193 µM
- relative IC50 (UT-SCC-42B; [11]): 0.0366 µM
- relative IC50 (UT-SCC-42B; [12]): 0.0314 µM
- relative IC50 (UT-SCC-44; [9]): 0.0104 µM
- relative IC50 (UT-SCC-44; [10]): 0.0059 µM
- relative IC50 (UT-SCC-44; [11]): 0.00917 µM
- relative IC50 (UT-SCC-44; [12]): 0.0144 µM
- relative IC50 (UT-SCC-8; [8]): 0.00505 µM
- relative IC50 (UT-SCC-8; [10]): 0.0075 µM
- relative IC50 (UT-SCC-8; [11]): 0.00801 µM
- relative IC50 (UT-SCC-8; [12]): 0.00697 µM
- relative IC50 (UT-SCC-24B [3]; [8]): 0.011 µM
- relative IC50 (UT-SCC-24B [3]; [9]): 0.0094 µM
- relative IC50 (UT-SCC-24B [3]; [10]): 0.0116 µM
- relative IC50 (UT-SCC-24B [3]; [11]): 0.0158 µM
- relative IC50 (UT-SCC-24B [3]; [12]): 0.0128 µM
SMILES: COc1ncc(-c2ccc3nccc(-c4ccnnc4)c3c2)cc1NS(=O)(=O)c1ccc(F)cc1F [Omipalisib]
- drug sensitivity score (UT-SCC-14 [4]; [8]): 25.2 ± 1.2 DSS
- drug sensitivity score (UT-SCC-14 [4]; [9]): 20.9 ± 3.1 DSS
- drug sensitivity score (UT-SCC-14 [4]; [10]): 23.8 ± 0.57 DSS
- drug sensitivity score (UT-SCC-14 [4]; [11]): 20.6 ± 0.78 DSS
- drug sensitivity score (UT-SCC-14 [4]; [12]): 23.7 ± 2.6 DSS
- drug sensitivity score (UT-SCC-24B [5]; [8]): 22.3 ± 0.72 DSS
- drug sensitivity score (UT-SCC-24B [5]; [9]): 22.9 ± 1.3 DSS
- drug sensitivity score (UT-SCC-24B [5]; [10]): 21.7 ± 0.58 DSS
- drug sensitivity score (UT-SCC-24B [5]; [11]): 19.4 ± 0.7 DSS
- drug sensitivity score (UT-SCC-24B [5]; [12]): 21.6 ± 0.49 DSS
- drug sensitivity score (UT-SCC-24A [6]; [8]): 27 ± 2.8 DSS
- drug sensitivity score (UT-SCC-24A [6]; [9]): 22.6 ± 1.6 DSS
- drug sensitivity score (UT-SCC-24A [6]; [10]): 25.5 ± 1.2 DSS
- drug sensitivity score (UT-SCC-24A [6]; [11]): 20.4 ± 1.8 DSS
- drug sensitivity score (UT-SCC-24A [6]; [12]): 25 ± 1.6 DSS
- maximal % inhibition of viability (UT-SCC-24A [7]; [8]): 95.2 ± 1.4%
- maximal % inhibition of viability (UT-SCC-24A [7]; [9]): 89.2 ± 1.7%
- maximal % inhibition of viability (UT-SCC-24A [7]; [10]): 92 ± 1.5%
- maximal % inhibition of viability (UT-SCC-24A [7]; [11]): 85.8 ± 0.99%
- maximal % inhibition of viability (UT-SCC-24A [7]; [12]): 91.6 ± 0.95%

- relative IC50 (UT-SCC-24A [1]; [11]): 0.137 µM
- relative IC50 (UT-SCC-24A [1]; [12]): 0.0879 µM
- relative IC50 (UT-SCC-42A; [9]): 0.263 µM
- relative IC50 (UT-SCC-42A; [11]): 0.111 µM
- relative IC50 (UT-SCC-14 [2]; [8]): 0.0742 µM
- relative IC50 (UT-SCC-14 [2]; [10]): 0.279 µM
- relative IC50 (UT-SCC-40; [8]): 0.0509 µM
- relative IC50 (UT-SCC-40; [9]): 0.0415 µM
- relative IC50 (UT-SCC-40; [10]): 0.061 µM
- relative IC50 (UT-SCC-106A; [8]): 0.0568 µM
- relative IC50 (UT-SCC-106A; [12]): 0.0563 µM
- relative IC50 (UT-SCC-81; [8]): 0.0535 µM
- relative IC50 (UT-SCC-81; [10]): 0.0953 µM
- relative IC50 (UT-SCC-73; [8]): 0.08 µM
- relative IC50 (UT-SCC-73; [9]): 0.0783 µM
- relative IC50 (UT-SCC-73; [10]): 0.0832 µM
- relative IC50 (UT-SCC-73; [11]): 0.122 µM
- relative IC50 (UT-SCC-73; [12]): 0.117 µM
- relative IC50 (UT-SCC-28; [8]): 0.0799 µM
- relative IC50 (UT-SCC-42B; [8]): 0.0868 µM
- relative IC50 (UT-SCC-42B; [10]): 0.266 µM
- relative IC50 (UT-SCC-42B; [11]): 0.268 µM
- relative IC50 (UT-SCC-44; [8]): 0.0952 µM
- relative IC50 (UT-SCC-44; [10]): 0.108 µM
- relative IC50 (UT-SCC-44; [11]): 0.151 µM
- relative IC50 (UT-SCC-8; [8]): 0.163 µM
- relative IC50 (UT-SCC-8; [10]): 0.176 µM
- relative IC50 (UT-SCC-8; [11]): 0.139 µM
- relative IC50 (UT-SCC-24B [3]; [8]): 0.169 µM
- relative IC50 (UT-SCC-24B [3]; [9]): 0.165 µM
- relative IC50 (UT-SCC-24B [3]; [10]): 0.173 µM
- relative IC50 (UT-SCC-24B [3]; [11]): 0.177 µM
- relative IC50 (UT-SCC-24B [3]; [12]): 0.117 µM
SMILES: Cn1cnc2c(F)c(Nc3ccc(Br)cc3Cl)c(C(=O)NOCCO)cc21 [Selumetinib]
- drug sensitivity score (UT-SCC-14 [4]; [8]): 7.13 ± 6.1 DSS
- drug sensitivity score (UT-SCC-14 [4]; [9]): 5.17 ± 3.2 DSS
- drug sensitivity score (UT-SCC-14 [4]; [10]): 7.17 ± 3 DSS
- drug sensitivity score (UT-SCC-14 [4]; [11]): 3.5 ± 3.6 DSS
- drug sensitivity score (UT-SCC-14 [4]; [12]): 0.833 ± 1.4 DSS
- drug sensitivity score (UT-SCC-24B [5]; [8]): 18.9 ± 1.8 DSS
- drug sensitivity score (UT-SCC-24B [5]; [9]): 18.2 ± 1.7 DSS
- drug sensitivity score (UT-SCC-24B [5]; [10]): 18.6 ± 0.25 DSS
- drug sensitivity score (UT-SCC-24B [5]; [11]): 17.6 ± 0.75 DSS
- drug sensitivity score (UT-SCC-24B [5]; [12]): 21 ± 0.4 DSS
- drug sensitivity score (UT-SCC-24A [6]; [8]): 20.7 ± 4.2 DSS
- drug sensitivity score (UT-SCC-24A [6]; [9]): 16.4 ± 1.8 DSS
- drug sensitivity score (UT-SCC-24A [6]; [10]): 19.4 ± 3.9 DSS
- drug sensitivity score (UT-SCC-24A [6]; [11]): 8.63 ± 1.6 DSS
- drug sensitivity score (UT-SCC-24A [6]; [12]): 17.9 ± 3.7 DSS
- maximal % inhibition of viability (UT-SCC-24A [7]; [8]): 81.7 ± 2.1%
- maximal % inhibition of viability (UT-SCC-24A [7]; [9]): 59.2 ± 2.4%
- maximal % inhibition of viability (UT-SCC-24A [7]; [10]): 76.7 ± 1.4%
- maximal % inhibition of viability (UT-SCC-24A [7]; [11]): 38.4 ± 3%
- maximal % inhibition of viability (UT-SCC-24A [7]; [12]): 70.2 ± 7.2%
